Target: T1, FimH-CRD (Escherichia coli, UniProt P08191)
T1 construct: The first 177 amino acids of the FimH protein; thrombin tag (printed as 'fusion protein with thrombin') (cleaved yes); made in house; host or cells: bacteria (pET21b plasmid)
Assay: Competitive binding assay by fluorescence polarization, assay 2 (compounds prepared by robotics, plates frozen and thawed)
Description: The first 177 amino acids of the FimH protein were expressed as a fusion protein with thrombin in a pET21b plasmid in bacteria. This FimH protein sequence contains the carbohydrate recognition domain (CRD) and shall be termed FimH-CRD. Following bacterial expression of the protein, the FimH-CRD protein was purified to homogeneity and the thrombin tag removed by protease cleavage. A competitive binding assay by fluorescence polarization was performed using 5 nM of the Alexa 647 mannoside probe and 60 nM of the FimH-CRD. The samples are assayed in a low volume 384 well microtiter plate in a final volume of 20 μl. The final assay buffer conditions are the following, 50 mM Tris-Cl, ph 7.0, 100 mM NaCl, 1 mM EDTA, 5 mM β-mercaptoethanol, 0.05% BSA and 2.5% DMSO. Two assays are performed for FimH, termed assay 1 or assay 2. The assay conditions are the same for both assays except the following: assay 1 has compounds prepared by manual dilution in a serial dilution factor with 12-point dose response while assay 2 has compounds prepared by a robotics system also through a serial dilution factor (12 point dose response) and initially prepared in duplicate in 384 well-Corning polypropylene round bottom plates. The assay 2 plates have compound which is then frozen and must be thawed prior to use. Initially the Alexa 647 probe and the FimH-CRD are added to the assay buffer and then 0.5 μl of test compound (assay 1 or 2) between 0.4 nM to 75 μM final concentration are added (12 point titration with 3-fold serial dilution). Control wells for the Alexa 647 probe are prepared with the same conditions except for the addition of the FimH-CRD protein. Plates are then incubated for 5 hrs at room temperature in the dark and under humid conditions to prevent drying. Plates are read using the SpectraMax Paradigm multi-mode plate reader and the appropriate fluorescent polarization detection cartridge (Alexa-647).
Alexa 647 mannoside probe is prepared using the similar procedure reported for FAM mannoside (Han, Z. et. al., 2010, J. Med. Chem., 53, 4779) and is described in the scheme below.
To a blue colored stirred solution of (2S,3S,4S,5S,6R)-2-(4-aminobutoxy)-6-(hydroxymethyl)tetrahydropyran-3,4,5-triol (2.21 mg, 0.009 mmol) and the (2E)-2-[(2E,4E)-5-[3,3-dimethyl-5-sulfonato-1-(3-sulfonatopropyl)indol-1-ium-2-yl]penta-2,4-dienylidene]-3-[6-(2,5-dioxopyrrolidin-1-yl)oxy-6-oxo-hexyl]-3-methyl-1-(3-sulfonatopropyl)indoline-5-sulfonate (Potassium Ion (3)) (4.9 mg, 0.0044 mmol) in DMF (44 μL) is added Et3N (5.4 mg, 7.0 μL, 0.053 mmol) at RT. The solution is stirred at room temperature over night, concentrated, dissolved in water and purified on 12 g C-18 silica gel cartridge on Isolera system using acetonitrile in water (0 to 40%, 10 CV) and followed by lyophilization to afford Alexa 647 mannoside probe (3.3 mg, 34%) as deep blue solid.
The Kd values of the compounds are determined from dose response curves using twelve concentrations per compound in duplicate. Curves are fitted to data points using Fluorescence Polarization competitive displacement analysis, and Kds are interpolated from the resulting curves using GraphPad Prism software, version […] (GraphPad software Inc., San Diego, Calif., USA).

T1 sequence (P08191 22-177): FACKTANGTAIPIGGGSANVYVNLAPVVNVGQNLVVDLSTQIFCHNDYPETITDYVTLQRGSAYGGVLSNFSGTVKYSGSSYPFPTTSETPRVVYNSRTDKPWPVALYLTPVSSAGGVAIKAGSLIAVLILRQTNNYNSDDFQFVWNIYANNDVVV

Structure (SMILES)	Kd
OC[C@H]1O[C@H](c2cccc(CCCc3ccccc3)c2)[C@@H](O)[C@@H](O)[C@@H]1O [Compound 99]	26.4 ± 1.1 nM
COC(=O)c1ccc(CCc2ccc([C@H]3O[C@H](CO)[C@@H](O)[C@H](O)[C@@H]3O)cc2)cc1 [Compound 100, Methyl 4-[2-[4-[(2R,3S,4R,5S,6R)-3,4,5-trihydroxy-6-(hydroxymethyl)tetrahydropyran-2-yl]phenyl]ethyl]benzoate]	12 ± 3.1 nM
COC(=O)c1cccc(CCc2cccc([C@H]3O[C@H](CO)[C@@H](O)[C@H](O)[C@@H]3O)c2)c1 [Compound 101, Methyl 3-[2-[3-[(2R,3S,4R,5S,6R)-3,4,5-trihydroxy-6-(hydroxymethyl)tetrahydropyran-2-yl]phenyl]ethyl]benzoate]	12.9 ± 9.7 nM
OC[C@H]1O[C@H](c2cccc(CCc3ccccc3)c2)[C@@H](O)[C@@H](O)[C@@H]1O [Compound 102, (2R,3S,4R,5S,6R)-2-(Hydroxymethyl)-6-[3-(2-phenylethyl)phenyl]tetrahydropyran-3,4,5-triol]	22 ± 3.4 nM
COC(=O)c1ccc(CCc2cccc([C@H]3O[C@H](CO)[C@@H](O)[C@H](O)[C@@H]3O)c2)cc1 [Compound 103, Methyl 4-[2-[3-[(2R,3S,4R,5S,6R)-3,4,5-trihydroxy-6-(hydroxymethyl)tetrahydropyran-2-yl]phenyl]ethyl]benzoate]	9.7 ± 4.5 nM
Cc1nnc(-c2ccc(-c3cccc([C@H]4O[C@H](CO)[C@@H](O)[C@H](O)[C@@H]4O)c3C)cc2)o1 [Compound 104, (2R,3S,4R,5S,6R)-2-(Hydroxymethyl)-6-[2-methyl-3-[4-(5-methyl-1,3,4-oxadiazol-2-yl)phenyl]phenyl]tetrahydropyran-3,4,5-triol]	8.5 ± 3.1 nM
CCc1c(-c2ccc(-c3nnc(C)o3)cc2)cccc1[C@H]1O[C@H](CO)[C@@H](O)[C@H](O)[C@@H]1O [Compound 105, (2R,3S,4R,5S,6R)-2-[2-Ethyl-3-[4-(5-methyl-1,3,4-oxadiazol-2-yl)phenyl]phenyl]-6-(hydroxymethyl)tetrahydropyran-3,4,5-triol]	28.1 ± 3.9 nM
Cc1nnc(-c2ccc(-c3cccc([C@H]4O[C@H](CO)[C@@H](O)[C@H](O)[C@@H]4O)c3F)cc2)o1 [Compound 106, (2R,3S,4R,5S,6R)-2-[2-Fluoro-3-[4-(5-methyl-1,3,4-oxadiazol-2-yl)phenyl]phenyl]-6-(hydroxymethyl)tetrahydropyran-3,4,5-triol]	23.4 ± 7.5 nM
COc1cc(-c2nnc(C)o2)ccc1-c1cccc([C@H]2O[C@H](CO)[C@@H](O)[C@H](O)[C@@H]2O)c1C [Compound 107, (2R,3S,4R,5S,6R)-2-(hydroxymethyl)-6-[3-[2-methoxy-4-(5-methyl-1,3,4-oxadiazol-2-yl)phenyl]-2-methyl-phenyl]tetrahydropyran-3,4,5-triol]	9.8 ± 0.6 nM
Cc1c(-c2ccc(-c3ccn(C)n3)cc2)cccc1[C@H]1O[C@H](CO)[C@@H](O)[C@H](O)[C@@H]1O [Compound 108, (2R,3S,4R,5S,6R)-2-(Hydroxymethyl)-6-[2-methyl-3-[4-(1-methylpyrazol-3-yl)phenyl]phenyl]tetrahydropyran-3,4,5-triol]	7.9 ± 2.9 nM
Cc1c(-c2ccc(S(C)(=O)=O)cc2)cccc1[C@H]1O[C@H](CO)[C@@H](O)[C@H](O)[C@@H]1O [Compound 109, (2R,3S,4R,5S,6R)-2-(Hydroxymethyl)-6-[2-methyl-3-(4-methylsulfonylphenyl)phenyl]tetrahydropyran-3,4,5-triol]	14.4 ± 6.2 nM
Cc1c(-c2cccc(S(C)(=O)=O)c2)cccc1[C@H]1O[C@H](CO)[C@@H](O)[C@H](O)[C@@H]1O [Compound 110, (2R,3S,4R,5S,6R)-2-(Hydroxymethyl)-6-[2-methyl-3-(3-methylsulfonylphenyl)phenyl]tetrahydropyran-3,4,5-triol]	28.9 ± 4.5 nM
CN(C)Cc1nnc(-c2ccc(-c3cccc([C@H]4O[C@H](CO)[C@@H](O)[C@H](O)[C@@H]4O)c3)cc2)o1 [Compound 113, (2R,3S,4R,5S,6R)-2-[3-[4-[5-[(Dimethylamino)methyl]-1,3,4-oxadiazol-2-yl]phenyl]phenyl]-6-(hydroxymethyl)tetrahydropyran-3,4,5-triol]	20.7 ± 4.7 nM
CC(C)(C)OC(=O)NCc1nnc(-c2ccc(-c3cccc([C@H]4O[C@H](CO)[C@@H](O)[C@H](O)[C@@H]4O)c3)cc2)o1 [Compound 115, tert-Butyl N-[[5-[4-[3-[(2R,3S,4R,5S,6R)-3,4,5-trihydroxy-6-(hydroxymethyl)tetrahydropyran-2-yl]phenyl]phenyl]-1,3,4-oxadiazol-2-yl]methyl]carbamate]	24.2 ± 2.9 nM
Cc1cnc(-c2ccc(-c3cccc([C@H]4O[C@H](CO)[C@@H](O)[C@H](O)[C@@H]4O)c3)cc2)o1 [Compound 117, (2R,3S,4R,5S,6R)-2-(hydroxymethyl)-6-[3-[4-(5-methyloxazol-2-yl)phenyl]phenyl]tetrahydropyran-3,4,5-triol]	20.9 ± 6.7 nM
CC(C)c1nnc(-c2ccc(-c3cccc([C@H]4O[C@H](CO)[C@@H](O)[C@H](O)[C@@H]4O)c3)cc2)o1 [Compound 118, (2R,3S,4R,5S,6R)-2-(hydroxymethyl)-6-[3-[4-(5-isopropyl-1,3,4-oxadiazol-2-yl)phenyl]phenyl]tetrahydropyran-3,4,5-triol]	13.1 ± 0.2 nM
OC[C@H]1O[C@H](c2cccc(-c3ccc(-c4cnco4)cc3)c2)[C@@H](O)[C@@H](O)[C@@H]1O [Compound 119, (2R,3S,4R,5S,6R)-2-(hydroxymethyl)-6-[3-(4-oxazol-5-ylphenyl)phenyl]tetrahydropyran-3,4,5-triol]	19.5 ± 8.8 nM
OC[C@H]1O[C@H](c2cccc(-c3ccc(-c4nnc(-c5ccccn5)o4)cc3)c2)[C@@H](O)[C@@H](O)[C@@H]1O [Compound 120, (2R,3S,4R,5S,6R)-2-(hydroxymethyl)-6-[3-[4-[5-(2-pyridyl)-1,3,4-oxadiazol-2-yl]phenyl]phenyl]tetrahydropyran-3,4,5-triol]	12.8 ± 2.1 nM
Cc1ccc(-c2nnc(-c3ccc(-c4cccc([C@H]5O[C@H](CO)[C@@H](O)[C@H](O)[C@@H]5O)c4)cc3)o2)o1 [Compound 121, (2R,3S,4R,5S,6R)-2-(hydroxymethyl)-6-[3-[4-[5-(5-methyl-2-furyl)-1,3,4-oxadiazol-2-yl]phenyl]phenyl]tetrahydropyran-3,4,5-triol]	13.1 ± 0.9 nM
Cn1ccc(-c2ccc(-c3cccc([C@H]4O[C@H](CO)[C@@H](O)[C@H](O)[C@@H]4O)c3)cc2)n1 [Compound 122, (2R,3S,4R,5S,6R)-2-(hydroxymethyl)-6-[3-[4-(1-methylpyrazol-3-yl)phenyl]phenyl]tetrahydropyran-3,4,5-triol]	27.6 ± 7.4 nM
Cc1nnc(-c2cccc(-c3cccc([C@H]4O[C@H](CO)[C@@H](O)[C@H](O)[C@@H]4O)c3)c2)o1 [Compound 123, (2R,3S,4R,5S,6R)-2-(hydroxymethyl)-6-[3-[3-(5-methyl-1,3,4-oxadiazol-2-yl)phenyl]phenyl]tetrahydropyran-3,4,5-triol]	37.1 ± 8.5 nM
Cn1nccc1-c1ccc(-c2cccc([C@H]3O[C@H](CO)[C@@H](O)[C@H](O)[C@@H]3O)c2)cc1 [Compound 124, (2R,3S,4R,5S,6R)-2-(hydroxymethyl)-6-[3-[4-(2-methylpyrazol-3-yl)phenyl]phenyl]tetrahydropyran-3,4,5-triol]	16.2 ± 2 nM
Cc1nnc(-c2ccc(-c3cccc([C@H]4O[C@H](CO)[C@@H](O)[C@H](O)[C@@H]4O)c3)c(C)c2)o1 [Compound 125, (2R,3S,4R,5S,6R)-2-(hydroxymethyl)-6-[3-[2-methyl-4-(5-methyl-1,3,4-oxadiazol-2-yl)phenyl]phenyl]tetrahydropyran-3,4,5-triol]	13.9 ± 2.6 nM
COc1cc(-c2cccc([C@H]3O[C@H](CO)[C@@H](O)[C@H](O)[C@@H]3O)c2)ccc1-c1nnc(C)o1 [Compound 127, (2R,3S,4R,5S,6R)-2-(hydroxymethyl)-6-[3-[3-methoxy-4-(5-methyl-1,3,4-oxadiazol-2-yl)phenyl]phenyl]tetrahydropyran-3,4,5-triol]	17.4 ± 4.8 nM
